In patent publication US20080280326A1, “Novel Gonadotropin-Releasing Hormone, Precursor Peptides Thereof and Genes Encoding the Same” (SUNTORY LIMITED, priority 2000, published 2008):
Square brackets hold non-standard residues; d marks the D form. pGlu = O=C1CC[C@@H](C(=O)O)N1

Legend:
[1] = test system: Cells taken from the pituitary glands of quails; assay: Release of luteinizing hormone (LH) from cultured quail pituitary gland cells, radioimmunoassay; format: cell-based; settings: final concentrations 0, 10^-9 to 10^-5 M, 4 hrs incubation, one-way ANOVA (FIG. 4)
Experimental: Cells taken from the pituitary glands of quails were inoculated onto a 24-well plate at 7.5×10^5 cells/well (substantially equivalent to two animals). The cells were then incubated for 3 days in a culture medium containing fetal calf serum. The cells were incubated for another 24 hrs in 1 ml serum-free medium. After the incubation period, the peptide solution was added to the culture medium to final concentrations of 0, 10^−9, 10^−8, 10^−7, 10^−6 and 10^−5 M, respectively, and the cultures were further incubated for 4 hrs. The supernatant was then collected from each culture. For each concentration, 5 samples were subjected to radioimmunoassay and measurements were taken. The data were statistically analyzed by one-way analysis of variance (ANOVA).

heart of O. vulgaris = assay: Measurement of the heart beat activity of O. vulgaris (isolated cannulated heart); design: species or system Octopus vulgaris; settings: for variation of the heart beat of O. vulgaris (heart rate and amplitude): 10^-5 M added to the chamber (FIG. 3)
Experimental: The heart beat activity of O. vulgaris was measured according to the method proposed by Morishita, et al. (Fumihiro Morishita, Biochem. Biophys. Res. Commun., 240, 354-358 (1997)). Specifically, the heart was taken from O. vulgaris and the atria were removed from the heart. A cannula was inserted from each atrium into the ventricle and was at the same time connected to a chamber (80 ml in volume) by tying with a cotton thread. The aorta was pinched to prevent leakage of liquid from the ventricle and was connected to a tension transducer. This completed preparation of the heart to serve as a specimen for the assay. Each cannula was adjusted to permit a 1 to 2 ml/min flow of artificial sea water (containing 0.1% glucose). Each of the analytes to be assayed was dissolved in 1 ml of the same artificial sea-water, and the resulting solution was injected into the heart through the cannulae. The variation of the heart beat was recorded.
As test compounds, Compound (1) isolated from the brains of O. vulgaris, Compound (2), and cGnRH-II, a vertebrate GnRH isolated from chickens and used to derive Compound (2) therefrom, were used.

Substance | release of luteinizing hormone (LH) [1] | variation of the heart beat of O. vulgaris (heart of O. vulgaris; amount of Compound (1) corresponding to one specimen of O. vulgaris added to the chamber (FIG. 2)) | cardioactivity toward the heart beat of O. vulgaris, synthetic versus naturally-occurring peptide (heart of O. vulgaris; purified synthetic peptide of Example 3) | variation of the heart beat of O. vulgaris (heart rate and amplitude) (heart of O. vulgaris)
<Glu-Asn-Tyr-His-Phe-Ser-Asn-Gly-Trp-His-Pro-Gly-NH2 ([pGlu]NYHFSNGWHPG-NH2; listed as Octopus vulgaris) [Compound (1)] | significantly increased the release of luteinizing hormone (LH) | enhanced the heart beat of O. vulgaris | same cardioactivity toward the heart beat of O. vulgaris as did the naturally-occurring peptide | –
<Glu-Asn-Tyr-His-Trp-Ser-His-Gly-Trp-Tyr-Pro-Gly-NH2 ([pGlu]NYHWSHGWYPG-NH2; SMILES NC(=O)CNC(=O)[C@@H]1CCCN1C(=O)[C@H](Cc1ccc(O)cc1)NC(=O)[C@H](Cc1c[nH]c2ccccc12)NC(=O)CNC(=O)[C@H](Cc1c[nH]cn1)NC(=O)[C@H](CO)NC(=O)[C@H](Cc1c[nH]c2ccccc12)NC(=O)[C@H](Cc1c[nH]cn1)NC(=O)[C@H](Cc1ccc(O)cc1)NC(=O)[C@H](CC(N)=O)NC(=O)[C@@H]1CCC(=O)N1) [Compound (2), cGnRH-II with Asn-Tyr inserted between the first <Glu and the second His residues] | – | – | – | enhanced the heart beat of O. vulgaris by increasing both the heart rate and the amplitude of the heart beat
<Glu-His-Phe-Ser-Asn-Gly-Trp-His-Pro-Gly-NH2 ([pGlu]HFSNGWHPG-NH2; SMILES NC(=O)CNC(=O)[C@@H]1CCCN1C(=O)[C@H](Cc1c[nH]cn1)NC(=O)[C@H](Cc1c[nH]c2ccccc12)NC(=O)CNC(=O)[C@H](CC(N)=O)NC(=O)[C@H](CO)NC(=O)[C@H](Cc1ccccc1)NC(=O)[C@H](Cc1c[nH]cn1)NC(=O)[C@@H]1CCC(=O)N1; listed as Octopus vulgaris) [Compound (3), decapeptide obtained by deletion of amino acids 2 and 3 from the N-terminal region of Compound (1)] | increase the release of luteinizing hormone (LH) | – | – | –
cGnRH-II: chicken-II-type GnRH, a vertebrate decapeptide GnRH isolated from chickens, used to derive Compound (2) ([pGlu]HWSHGWYPG-NH2; ends and bridges not checked; UniProt P68072 1-10, looked up) [reference compound] | – | – | – | did not have any effect on the heart rate or the amplitude of the heart beat of O. vulgaris
